From patent US20080009802A1, “Method of treating acne with stratum corneum piercing device” (priority 2005, published 2008)
Like-named read-outs stand apart in the source and are kept apart here.

Tested on: skin site on subject's forearm or face
Conditions: for ENHANCED ACTIVE DELIVERY (HISTAMINE RESPONSE): about 10 microliters 0.10% wt/wt histamine, visual inspection after 10 minutes
Method: The microprotrusion disk of Example 1 was affixed on the desired skin site on subject's forearm or face. The implement of Example 3 was used to push the microprotrusion disk through stratum corneum with predetermined impact pressure modified by the choice of spring. The impact pressure was measured using a digital force meter (Model DFM 10, Chatillon, Greensboro, N.C.). The contact area between the implement device and skin was determined to be about 1.2 cm in diameter. The pressure per unit area was calculated from the ratio of pressure/contact area. The disk was removed immediately after the application. Both subject sensation (e.g., pain and sting) and erythema of the testing site were recorded immediately after the application, and is reported in Table 1.
The reaction of the subject's skin to histamine (e.g., erythema) was recorded after 10 minutes following histamine application to the treatment site by visual inspection. Additional inspection followed if a reaction was detected at 10 minutes. Controls were run by applying histamine solution to untreated skin sites (e.g., sites not pierced by the microprotrusion members). All test sites were graded visually for the evidence of post-inflammatory hyperpigmentation (PIH) for up to at least 3 weeks.

- skin's reaction to topically applied histamine (control test sites: untreated skin, not pierced by the microprotrusion members): did not result in erythema
- skin's reaction to topically applied histamine (following microprotrusion treatment): manifested in erythema
- ENHANCED ACTIVE DELIVERY (HISTAMINE RESPONSE) (subject 1/Forearm, microprotrusion length 225 micrometer, 8 lbs/cm^2): Yes,
- ENHANCED ACTIVE DELIVERY (HISTAMINE RESPONSE) (subject 2/Forearm, microprotrusion length 225 micrometer, 6 lbs/cm^2): Yes,
- ENHANCED ACTIVE DELIVERY (HISTAMINE RESPONSE) (subject 3/Cheek (bone), microprotrusion length 185 micrometer, 3.2 lbs/cm^2): Yes, but not
- ENHANCED ACTIVE DELIVERY (HISTAMINE RESPONSE) (subject 4/Forearm, microprotrusion length 185 micrometer, 4.6 lbs/cm^2): Yes,
- ENHANCED ACTIVE DELIVERY (HISTAMINE RESPONSE) (subject 5/Forearm, microprotrusion length 185 micrometer, 8 lbs/cm^2): Yes,
- ENHANCED ACTIVE DELIVERY (HISTAMINE RESPONSE) (subject 6/Forehead, microprotrusion length 145 micrometer, 5 lbs/cm^2): Yes,
SMILES: NCCc1c[nH]cn1 [histamine]
